Patent US7572814B2, “3,5-dibenzoyl-4-phenyl-piperidine anti-cancer compounds” (Cytokinetics, Incorporated, priority 2005, dated 2009)

Assays:
[1] = system: A549 cells; settings: data provided by National Cancer Institute; cited from earlier work
[2] = system: SKOV-3 human ovarian carcinoma; assay: Tumor growth delay (TGD) study, established SKOV-3 tumors in athymic nude mice; format: in vivo; settings: 30 mg/kg i.v. qod×5
Procedure: Certain of the chemical entities described herein were evaluated for in vivo activity against SKOV-3 human ovarian carcinoma in a tumor growth delay (TGD) study. The study utilized eight groups (n=8) of athymic nude mice bearing established (63-144 mm3) SKOV-3 tumors on Day 1, and included a vehicle-treated tumor growth control group and a reference group treated with paclitaxel (30 mg/kg i.v. qod×5). A first chemical entity was evaluated at doses of 300 or 150 mg/kg administered intraperitoneally (i.p.) once daily and at 150 mg/kg administered i.p. twice daily. Doses were administered on study days 1 to 5 and 8 to 12. Tumors were measured twice weekly during the 60-day study. Each animal was euthanized when its tumor reached the endpoint volume of 1500 mm3 or on Day 60, whichever came first, and the time to endpoint (TTE) was calculated for each mouse. Treatment outcome was determined from percent tumor growth delay (% TGD), defined as the percent increase in median TTE of treated versus control mice, with differences in TTE values deemed significant at P □0.05 using logrank analysis. The results presented were calculated based on data acquired through day 33 of the study. The median TTE of the untreated control group was 20.8 days.
A second chemical entity was similarly evaluated at 500 mg/kg administered i.p. once daily.

Row | SMILES | GI50 [1] | percent tumor growth delay (% TGD) ([2]; data through day 33, statistically significant) | tumor growth delay (T-C) ([2]; maximum possible in this study, untreated control median TTE 20.8 days)
1 | COc1cccc2c1C(=O)c1c(O)c3c(c(O)c1C2=O)C[C@@](O)(C(=O)CO)C[C@@H]3O[C@H]1C[C@H](N)[C@H](O)[C@H](C)O1 [doxorubicin] | 63 nM | – | –
2 | NC(=O)NO [hydroxyurea] | 500000 nM | – | –
3 | O=c1[nH]cc(F)c(=O)[nH]1 [5-fluorouracil] | 1000 nM | – | –
4 | CC(=O)O[C@H]1C(=O)[C@@]2(C)[C@H]([C@H](OC(=O)c3ccccc3)[C@]3(O)C[C@H](OC(=O)[C@H](O)[C@@H](NC(=O)c4ccccc4)c4ccccc4)C(C)=C1C3(C)C)[C@]1(OC(C)=O)CO[C@@H]1C[C@@H]2O [paclitaxel] | 4 nM | 58% | 12.2 days
